In patent US20240099964A1, “Methods and Compositions for the Prophylactic Treatment of SARS-CoV-2 virus (COVID-19)” (MedinCell S.A., priority 2020, published 2024):

How the values were obtained:
Zika virus (ZIKV) = conditions: mice; cited from earlier work
[1] = tested on: SARS-CoV-2 clinical isolate; conditions: Vero/hSLAM cells, cited from earlier work
SARS-CoV-2 = experiment: Ivermectin effect on preventing SARS-CoV-2 infection of pretreated Vero-E6 cells (qRT-PCR); type: cell-based
Protocol: Assessment of Ivermectin effect on preventing SARS-CoV-2 infection Vero-E6 cells were incubated with 0.01, 0.025, 0.05, 0.1, 0.5, 1 or 5 μM concentrations of ivermectin during 2, 6, 16 or 24 hours. Then, cells were infected with SARS-CoV-2 at a multiplicity of infection (MOI) of 0.001, 0.01 or 0.1. After 2 hours of incubation in the presence of the virus, medium with the same concentration of ivermectin was added again. After 24, 48 or 72 hours, viral charge is quantified by qRT-PCR.

Vero-E6 cells = experiment: Cytotoxicity in non-infected Vero-E6 cells (cell viability); type: cell-based; conditions: 0.01-5 μM ivermectin
Protocol: For avoiding false positives, cytotoxicity was evaluated by culturing non-infected cells in the same conditions and with the same concentrations of ivermectin. Cell viability was then determined.

DENV = conditions: single daily oral dose; cited from earlier work

ivermectin
effectiveness against Zika virus (Zika virus (ZIKV)): not effective | antiviral action in vitro [1]: has antiviral action | time within which a single dose controls viral replication ([1]; single dose): 24 to 48 h | preincubation-time dependency of inhibition of viral replication (SARS-CoV-2; 72 hours post-infection, preincubation 2, 6, 16 or 24 hours): the longer the preincubation time with ivermectin, the higher the inhibition of viral replication | viral replication (RT-qPCR) (SARS-CoV-2; cells pretreated with ivermectin at 5 μM): highly inhibited | cell toxicity (Vero-E6 cells): No cell toxicity | safety (DENV): safe | serum levels of viral NS1 protein (DENV): significant reduction | viremia or clinical benefit (DENV): no change
